The source of these data is US7226932B2, “Self-emulsifying drug delivery system” (priority 1994, dated 2007).

Series [1] in a line: Oral administration to rats, plasma pharmacokinetics. The class given is in vivo. The settings on record: rat, suspension in tween 80, methylcellulose and water. The protocol:
Rats: […] Three rats were administered with each dose vehicle. […] Plasma concentrations of the pharmaceutical were determined as previously described in the dog and the same pharmacokinetic parameters were determined.

In series [2] the target is HIV protease (Human immunodeficiency virus type 1 group M subtype B, UniProt P04585). Description: IC50 and IC90 pharmaceutical plasma levels.
A short description of series [3]: Solubility in water and oil. The class given is physicochemical.
Series [4] can be described thus: Bioavailability measured in animals. The class given is in vivo.

Structures are written as SMILES. Converted amounts (≈) assume the structure as drawn. Like-named read-outs stand apart in the source and are kept apart here.

`CC(C)CN(C[C@@H](O)[C@H](Cc1ccccc1)NC(=O)[C@H](CC(N)=O)NC(=O)c1ccc2ccccc2n1)C(=O)NC(C)(C)C` [Example 1, N^1-[3-[N^2-[[(1,1-dimethylethyl)amino]carbonyl]-N^2-(2-methylpropyl)amino]-2(R)-hydroxy-1(S)-(phenylmethyl)propyl]-2(S)-[N^3-(2-quinolinylcarbonyl)amino]butanediamide] displayed a melting point of 107 to 109.8 °C. This molecule also came in with a bioavailability in series [1] of around 1%. Further, in series [2], the IC50 is 0.0165 µM and it took 0.1 mg/L (≈ 0.165 µM) to reach the 90% level (IC90). The “dose to solubility ratio” value in series [3] is reported as > 75,000. In addition, the solubility in series [3] (oil, oil or lipid, read-out: solubility in oil) was below 1 mg/mL. The solubility in series [3] (water, read-out: solubility in water) is around 0.01 mg/mL (≈ 16.5 µM). The bioavailability in series [4] (in vivo, normal formulation methods, read-out: bioavailability) was below 1%. For the same molecule, the bioavailability result in series [4] (measured in animals, without solubilizer) was “very low”. The increase of bioavailability in series [4] (utilizing a solubilizer in the dosage formulation) was 25–30 fold.

As usually defined, the bioavailability is dose-corrected exposure relative to a reference, in per cent. Broadly, the IC50 is the concentration at which inhibition is half-maximal. Lower therefore signals greater potency in that assay. A word on the IC90: it is the concentration needed for an effect of 90%. A high value points to a need for much substance. As usually defined, the solubility is how much of the substance goes into solution per volume. As usually defined, the melting point is the temperature, or range, at which the solid turns liquid.
